Measurements as given in PMC12022975, “NMR^2-Based Drug Discovery Pipeline Presented on the Oncogenic Protein KRAS” (Journal of the American Chemical Society, 2025).
Where two headings read alike, the source gives them in different places.

What was measured:
[1] = target: T1, KRAS G12V GMP-PNP (Homo sapiens, UniProt P01116, G12V); test: Ligand-titrated [15N,1H]-HSQC affinity determination (TITAN line shape analysis); type: binding
T1 construct: His-tag (TEV-cleavable) (cleaved yes); made in house; host or cells: E. coli BL21* DE3
Procedure: A detailed summary for each ligand can be found in the Supporting Information. The NMR data were processed with nmrpipe, and the affinity was analyzed with TITAN.[29]
The amide signals of L6, V7, T74, and G75 were analyzed using the line shape analysis software TITAN.[29] Additionally, the chemical shift perturbation binding curve was analyzed.
MHz spectrometer equipped with a cryoprobe and SampleJet.
4, 5, 9: [15N, 1H]-sofastHSQC experiments were done on a Bruker Ascend console NEO 500 MHz with a prodigy probe head
titrated to ~100 µM KRAS.
spectrometer equipped with a cryoprobe.
Table SI1: Summary of all [1H, 1H] - NOESY spectra measured for all compounds which a NMR2
(1H) [MS] (1H) [MS] [MS] TIME [MS] [MHZ] TIME PER NOESY [H]

[2] = target: T1, KRAS G12V GMP-PNP; test: STD-NMR screening of the DSI-poised fragment library; type: binding; details: STD-NMR hit mark; mixtures of six, 600 μM per ligand, 12 μM KRAS; hit if S/N ratio greater than 5
Procedure: The STD-NMR and [^15N,^1H]-HSQC screening of the DSI-poised fragment library was performed on a Bruker Avance III HD 600 MHz spectrometer equipped with a cryoprobe and SampleJet. […] Analysis was performed in TopSpin 4.1 and CcpNMR 3.1.[28]
The DSI-poised fragment library comprises 890 molecules, designed such that analogues are readily accessible on the market and can be quickly synthesized.

[3] = TITAN analysis of L6, V7, T74, G75 amide signals, no saturation reached, interpret with caution, read-out: KD

Compound | Kd [1, 3] [mM] | STD [2] | Kd [1] [mM]
N=c1sccn1CC(=O)Nc1ccc(F)cc1 [compound 4] | 10 | √ | 
COc1ccc(C)cc1NC(=O)Nn1cnnc1 [compound 6] | 15 | √ | 
COc1ccc2sc(N)nc2c1 [compound 10] |  | √ | 5.9
CS(=O)(=O)Cc1nc2ccccc2[nH]1 [compound 11] |  | √ | 
O=C(CN1CCCC1)Nc1cccc(Cl)c1 [compound 12] |  | √ | 
COc1ccc2[nH]cc(CN(C)C)c2c1 [compound 13] |  | √ | 
Cc1cc2cc[nH]c2cc1C [compound 14] | 3.2 |  | 
O=C(O)/C=C/c1c[nH]c2ccccc12 [compound 16] | 4.5 |  | 

Continued, in another order:

Kd [1, 3] [mM] | STD [2] | Compound | Kd [1] [mM]
5.9 | √ | Nc1ccc(S(=O)(=O)Nc2ccccc2)cc1 [compound 7] | 
3.3 | √ | CNCc1cnn(-c2ccccc2)c1 [compound 9] | 
1.2 | √ | c1coc(CNc2nc3ccccc3[nH]2)c1 [fragment 1, C(c1ccco1)Nc1nc(cccc2)c2[nH]1] | 
5.2 | √ | Cc1[nH]ncc1CNc1ccccc1F [fragment 5, Cc1n[nH]cc1CNc(cccc1)c1F] | 
